From article PMC10762078, “Role of UPF1-LIN28A interaction during early differentiation of pluripotent stem cells” (Nature Communications, 2024)
Ends that are not written are not given here.

Key:
[1] = tested on: CHA15 cells; test: RT-qPCR of indicated transcripts (NMD targets, pluripotency markers) in CPP-peptide-treated CHA15 cells (Supplementary Fig. 6d); assay type: cell-based, human; details: Fig. s6d; for DLK1 mRNA level, mean / FRZB mRNA level, mean / GLI2 mRNA level, mean / MAPK7 mRNA level, mean / NANOG mRNA level, mean / NNAT mRNA level, mean / PDZD4 mRNA level, mean / POU5F1 mRNA level, mean / SERPINB9 mRNA level, mean / SIX3 mRNA level, mean / SLC7A5 mRNA level, mean / SNAP25 mRNA level, mean / SOX2 mRNA level, mean / TRMT61A mRNA level, mean / WLS mRNA level, mean: mean of 3 replicates
Experimental: For CPP-conjugated peptide delivery, HeLa, 293T, and PA-1 cells were incubated with CPP-conjugated peptides or CPP-FITC at 2 μM in DMEM with 10% FBS for 12 h a day before cell harvest. hPSCs were treated with CPP-conjugated peptides at 10 μM in mTeSR Plus Medium, and the peptide-containing medium was changed every day over 10 days. The ROCK inhibitor (Tocris Bioscience, Y-27632) treated-hPSCs were dissociated into single cells using Accutase (Merck, SCR005) and differentiated into ectoderm, mesoderm, and endoderm using the STEMdiff Trilineage Differentiation Kit ([…] Technologies, 05230) following the manufacturer’s protocol. Differentiated cells treated with CPP-conjugated peptides were analysed at 0, 3, and 5 days for ectoderm and endoderm, and at 0, 3, and 4 days for mesoderm. […]
cDNA was synthesised using RevertAid Reverse Transcriptase (Thermo Fisher Scientific, EP0441) with synthesised random hexamer (Macrogen) for total RNA or stem-loop primers for miRNA. For RT-qPCR reactions, the SensiFAST SYBR No-ROX kit (Meridian Bioscience) was used according to the manufacturer’s protocol. All data analysis and visualisation were conducted using R 3.6.1 [www.r-project.org] or GraphPad Prism 10. RT primers for miRNA and RT-qPCR primer sequences are provided in Supplementary Data 6. […]
Scale bars, 100 μm . d (Corresponding to Fig. 6d) RT -qPCR was perform ed to evaluate the level of indicated transcripts upon the indicated peptide treatm ent in CHA15 cells. e T ranscriptom e analysis was perf orm ed using signif icantly changed transcripts (p < 0.05) f rom siLIN28A or siControl in the indicated CPP-peptide treated CHA15 cells. […]
5p and m iR-16- 5p was shown as CDF graphs. T he relative level of m RNA was norm alised to that of U6 snRNA in (c, d, and f). K–S tests were used for e and f. Unpaired Student’s t-test was used for c , d, and f . * p < 0.05, ** p < 0.01, *** p < 0.001. Exact p -values were provided in Source data. Data are presented as m ean values ± SEM. All statistical test used were two- sided. T he m inim um num ber of independent biological replicate experim ents was a and e n = 2, b–d and f n = 3. T he experim ents were conducted three tim es, each iteration producing consistent results.

[2] = tested on: CHA15 cells; test: Flow cytometry (FACS) of OCT4- and NANOG-positive cells (Fig. 6c, Supplementary Fig. 6b); assay type: cell-based, human; details: for NANOG-positive cells, FACS (relative), mean / OCT4-positive cells, FACS (relative), mean: CHA15, CPP-peptide 10 μM, mean of 3 sets; for NANOG FACS, difference between means vs P1 ± SEM / OCT4 FACS, difference between means vs P1 ± SEM: CHA15, vs CPP-P1
Experimental: For CPP-conjugated peptide delivery, HeLa, 293T, and PA-1 cells were incubated with CPP-conjugated peptides or CPP-FITC at 2 μM in DMEM with 10% FBS for 12 h a day before cell harvest. hPSCs were treated with CPP-conjugated peptides at 10 μM in mTeSR Plus Medium, and the peptide-containing medium was changed every day over 10 days. The ROCK inhibitor (Tocris Bioscience, Y-27632) treated-hPSCs were dissociated into single cells using Accutase (Merck, SCR005) and differentiated into ectoderm, mesoderm, and endoderm using the STEMdiff Trilineage Differentiation Kit ([…] Technologies, 05230) following the manufacturer’s protocol. Differentiated cells treated with CPP-conjugated peptides were analysed at 0, 3, and 5 days for ectoderm and endoderm, and at 0, 3, and 4 days for mesoderm.
To evaluate the relative cell number expressing the indicated proteins, CHA15 cells with the indicated CPP-conjugated peptide were fixed with BD Cytofix Fixation Buffer (BD Biosciences Pharmingen, 554655) followed by permeabilization with 0.1% BSA/PBS solution supplemented with 10% NGS and 0.3% Triton X-100 for 1 h at 4 °C. After washing, cells were incubated with the primary antibodies (OCT4 1:1000, NANOG 1:1000, DLK1 1:1000, SOX2 1:1000, LHX2 1:1000) and then, secondary antibody, Alexa Fluor 488 (1:1000), was applied. The positive cells were determined using flow cytometry (FACSCanto, BD Pharmingen), and data was analysed using the Flow Jo-v10 software program.

[3] = unpaired t test, two-tailed, df=4

Substance	DLK1 mRNA level, mean [1]	FRZB mRNA level, mean [1]	GLI2 mRNA level, mean [1]	MAPK7 mRNA level, mean [1]	NANOG mRNA level, mean [1]	NNAT mRNA level, mean [1]	PDZD4 mRNA level, mean [1]	POU5F1 mRNA level, mean [1]	SERPINB9 mRNA level, mean [1]	SIX3 mRNA level, mean [1]	SLC7A5 mRNA level, mean [1]	SNAP25 mRNA level, mean [1]	SOX2 mRNA level, mean [1]	TRMT61A mRNA level, mean [1]	WLS mRNA level, mean [1]	FRZB, difference between means ± SEM vs. P1 [1, 3]	GLI2, difference between means ± SEM vs. P1 [1, 3]	MAPK7, difference between means ± SEM vs. P1 [1, 3]	NANOG-positive cells, FACS (relative), mean [2]	OCT4-positive cells, FACS (relative), mean [2]	other results
KKKWCRKKKSSADEKRYRALKRTAERELLMNA [P8]	56.31	8.725	0.6516	0.7487	0.4762	3.136	0.2348	0.5449	0.7287	16.62	0.3065	0.3657	1.107	0.5794	7.117	7.724 ± 0.7174	-0.3484 ± 0.08883	-0.2513 ± 0.07831	0.7195	0.7944	DLK1, difference between means ± SEM vs. P1 [1, 3]: 55.31 ± 2.539; NANOG, difference between means ± SEM vs. P1 [1, 3]: -0.5239 ± 0.0638; NNAT, difference between means ± SEM vs. P1 [1, 3]: 2.136 ± 0.5570; PDZD4, difference between means ± SEM vs. P1 [1, 3]: -0.7652 ± 0.01959; POU5F1, difference between means ± SEM vs. P1 [1, 3]: -0.4552 ± 0.05944; SERPINB9, difference between means ± SEM vs. P1 [1, 3]: -0.2711 ± 0.04259; SIX3, difference between means ± SEM vs. P1 [1, 3]: 15.62 ± 1.865; SLC7A5, difference between means ± SEM vs. P1 [1, 3]: -0.6935 ± 0.02913; SNAP25, difference between means ± SEM vs. P1 [1, 3]: -0.6344 ± 0.08552; SOX2, difference between means ± SEM vs. P1 [1, 3]: 0.1072 ± 0.1176; TRMT61A, difference between means ± SEM vs. P1 [1, 3]: -0.4206 ± 0.05922; WLS, difference between means ± SEM vs. P1 [1, 3]: 6.117 ± 0.3119; NANOG FACS, difference between means vs P1 ± SEM [2]: -0.2805 ± 0.006838; OCT4 FACS, difference between means vs P1 ± SEM [2]: -0.2056 ± 0.01612
N-QKLDQKELQLEPM-C [P1, reference compound]	1	1	1	1	1		1	1		1	1	1	1	1	1				1	1	
N-MPELQKLQQLKDE-C [P2, peptide derived from the UPF1 (419–700) domain]						0.9363			0.9791							-0.02698 ± 0.06622	-0.05239 ± 0.08994	0.03902 ± 0.06368	0.969	0.9851	NNAT, difference between means ± SEM vs. P1 [1, 3]: -0.06363 ± 0.1386; PDZD4, difference between means ± SEM vs. P1 [1, 3]: 0.05466 ± 0.04504; SERPINB9, difference between means ± SEM vs. P1 [1, 3]: -0.02067 ± 0.08291; SIX3, difference between means ± SEM vs. P1 [1, 3]: 0.1242 ± 0.09936; SLC7A5, difference between means ± SEM vs. P1 [1, 3]: 0.1166 ± 0.05272; SNAP25, difference between means ± SEM vs. P1 [1, 3]: 0.01594 ± 0.05751; SOX2, difference between means ± SEM vs. P1 [1, 3]: -0.1171 ± 0.06917; TRMT61A, difference between means ± SEM vs. P1 [1, 3]: 0.0576 ± 0.08417; WLS, difference between means ± SEM vs. P1 [1, 3]: -0.1429 ± 0.08376; NANOG FACS, difference between means vs P1 ± SEM [2]: -0.03103 ± 0.01235; OCT4 FACS, difference between means vs P1 ± SEM [2]: -0.01489 ± 0.005688
